Test [1] has as its target T1, HIV-1 RT wild type (WT) (Human immunodeficiency virus type 1 group M subtype B, UniProt P04585).
T1 construct: Heterodimeric RT was eluted using a descending gradient; made in house; host or cells: E. coli
Briefly: Reverse Transcriptase (RT) assay, wild type enzyme. Format: biochemical. The text has this:
(§1) Among the enzymes for which Human Immunodeficiency Virus (HIV-1) encodes is a reverse transcriptase (1), so-named because it transcribes a DNA copy from an RNA template. This activity can be quantitatively measured in a cell-free enzyme assay, which has been previously described (2), and is based upon the observation that reverse transcriptase is able to use a synthetic template poly r(C) primed with oligo d(G) to transcribe a radio-labelled, acid-precipitable DNA strand utilising ^3H-dGTP as a substrate. The assay described below utilises the wild type (WT) enzyme, which is the predominant form of the enzyme observed with patients infected with HIV-1. Utilisation of mutant RT enzymes (for example, Y181C, prepared by site-directed mutagenesis in which the tyrosine residue at codon 181 has been replaced by a cysteine residue, or the mutants K103N, V106A and Y188C) and analogous assay conditions allows compounds to be evaluated for their effectiveness at inhibiting the mutant enzymes.
(§2) The HIV-1 RT expression clone, pKRT2, was obtained from Yale University (3). An overnight culture, grown in 2×YT medium (37° C., 225 rpm) (4), supplemented with 100 μg/mL ampicillin for positive selection was used to inoculate the 2×YT medium. The culture was incubated (37° C., 225 rpm) until it reached an OD600 of 0.6-0.9. At that time, the repressor inhibitor IPTG (isopropyl P-D-thiogalactopyranoside) was added to 0.5 mM, and the mixture was incubated for an additional 2 hours.
(§3) Purification of recombinant reverse transcriptase was performed using a combination of methods previously described (5). This procedure is summarised briefly as follows: E. Coli containing RT-1 wt or RT-1 (Y181 C) were suspended in 50 mM MES, pH 6.0 containing 10% glycerol, lysed in a French press, centrifuged, and the supernates discarded. Lysate pellets were extracted with buffer A (50 mM MES, pH 6.0, 100 mM KCl, 50 mM KPi, 10% glycerol, 0.02% hexyl-β-glucoside), and re-centrifuged; nucleic acid in supernates was precipitated with 0.1% polyethylenimine. […] Bound RT was eluted with a gradient of 0 to 1.0M
(§4) (NH4)2 SO4 in buffer B. Heparin-Sepharose fractions containing RT were concentrated (Amicon YM-30 membrane), combined with equal volumes of 2.0M (NH4)2SO4 in buffer B and injected onto a 21.5×150 mm TSK Phenyl-5PW HIC HPLC column (Phenomenex). Heterodimeric RT was eluted using a descending gradient of 1.0M to 0M (NH4)2SO4 in buffer B, concentrated, and stored at 4° C.
(§5) The 2.4× concentrated stock reaction mixture was aliquoted and stored at −20° C. The mixture is stable and can be thawed for use in each assay. This enzyme assay has been adapted to a 96 well microtiter plate system, and has been previously described (6). Tris buffer (50 mM, pH 7.8), vehicle (solvent diluted to match the compound dilution), or compounds in vehicle were dispensed into 96-well microtiter plates (10 μL/well; 3 wells/compound). The HIV-1 RT enzyme was thawed, diluted in 50 mM Tris pH 7.8 containing 0.05% Chaps to give 1.5 nM enzyme and 25 μL were dispensed per well. Ten μL of 0.5M EDTA were added to the first three wells of the microtiter plate. EDTA chelates the Mg^2+ present and prevents reverse transcription. This group served as background polymerisation, which was subtracted, from all other groups. Twenty-five μl of the 2.4× reaction mixture was added to all wells and the assay was allowed to incubate at room temperature for 30 minutes. The assay was terminated by precipitating the DNA in each well with 60 μL of sodium pyrophosphate (2% w/v) in 10% trichloroacetic acid (TCA) (10% w/v). The microtiter plate was incubated for 15 minutes at 4° C. and the precipitate was harvested onto #30 glass fibre paper (Schleicher & Schuell) using a Tomtech 96-well harvester. The filters were dried, placed in plastic bags with Betaplate scintillation cocktail (Pharmacia/LKB) and counted in the Betaplate counter (Pharmacia/LKB).
(§6) The calculation for percent inhibition is as follows: [formula] […]

The target in test [2] is T2, HIV-1 RT double mutant K103N/Y181C (Human immunodeficiency virus type 1 group M subtype B, UniProt P04585, K690N/Y768C).
T2 construct: Heterodimeric RT was eluted using a descending gradient; made in house; host or cells: E. coli (inferred; the text describes only wild type and Y181C preparations)
Briefly: Reverse Transcriptase (RT) assay, double mutant enzyme. Format: biochemical.
Excerpt: as §1, §2, §3, §4, §5, §6

Some results are limits rather than exact numbers.

In general, IC50 refers to the concentration needed to halve the response being measured. As to `CCN1c2ncc(COc3cccc4c3CS(=O)(=O)N4)cc2C(=O)N(C)c2ccc(F)nc21` [Compound 104], the IC50 in test [1] was above 1000 nM.
Take `CN1C(=O)c2cc(CCOc3cccc4c3CS(=O)(=O)N4)cnc2N(C2CC2)c2ncccc21` [Compound 105]: the IC50 in test [1] is below 100 nM.
In the case of `Cc1cc(F)nc2c1NC(=O)c1cc(CCOc3cccc4c3CS(=O)(=O)N4)cnc1N2C1CC1` [Compound 106], the IC50 in test [1] was below 100 nM.
On to `CCN1c2ncc(COc3cccc4c3CS(=O)(=O)N4C)cc2C(=O)N(C)c2ccc(F)nc21` [Compound 107], for which the IC50 in test [1] was below 100 nM.
Turning to `CCN1c2ncc(COc3cccc4c3C(C)S(=O)(=O)N4C)cc2C(=O)N(C)c2ccc(F)nc21` (stereo not shown) [Compound 108], in test [1], the IC50 lay in the range of 100 to 1000 nM.
`CCN1c2ncc(CCOc3cccc4c3CS(=O)(=O)N4)cc2C(=O)Nc2c(C)cc(C)nc21` [Compound 109]: the half-inhibitory concentration (IC50) is 100 to 1000 nM in test [2] and below 100 nM in test [1].
As to `CCN1c2ncc(CCOc3cccc4c3CS(=O)(=O)N4C)cc2C(=O)N(C)c2ccc(F)nc21` [Compound 111], the concentration for half-maximal inhibition (IC50) in test [2] and in test [1] was below 100 nM throughout.
As for `CCN1c2ncc(CCOc3cccc4c3CS(=O)(=O)N4C)cc2C(=O)Nc2c(C)cc(F)nc21` [Compound 112], the IC50 in test [2] and in test [1] was below 100 nM in each case.
Regarding `CCN1c2ncc(CCOc3cccc4c3CS(=O)(=O)N4)cc2C(=O)N(C)c2ccc(C)nc21` [Compound 113], the values for the IC50 in test [2] and in test [1] were 100 to 1000 nM and below 100 nM, respectively.
With `CCN1c2ncc(CCOc3cccc4c3CS(=O)(=O)N4C)cc2C(=O)N(C)c2ccc(C)nc21` [Compound 114], the half-inhibitory concentration (IC50) in test [2] and in test [1] was below 100 nM each time.
Regarding `CCN1c2ncc(CCOc3cccc4c3CS(=O)(=O)N4CC)cc2C(=O)N(C)c2ccc(C)nc21` [Compound 115], the concentration for half-maximal inhibition (IC50) in test [2] and in test [1] was below 100 nM in each case.
Consider `CN1C(=O)c2cc(CCOc3cccc4c3CS(=O)(=O)N4C)cnc2N(C2CC2)c2ncccc21` [Compound 116], for which the concentration for half-maximal inhibition (IC50) is 100 to 1000 nM in test [2] and below 100 nM in test [1].
On to `Cc1cc(F)nc2c1NC(=O)c1cc(CCOc3cccc4c3CS(=O)(=O)N4C)cnc1N2C1CC1` [Compound 118], for which the half-inhibitory concentration (IC50) in test [2] was 100 to 1000 nM; in test [1], below 100 nM.
The corresponding values for `Cc1cc(F)nc2c1N(C)C(=O)c1cc(CCOc3cccc4c3CS(=O)(=O)N4C)cnc1N2C1CC1` [Compound 119] are 100 to 1000 nM and below 100 nM.
Turning to `CCN1c2ncc(CCOc3cccc4c3CS(=O)(=O)N4)cc2C(=O)Nc2c(C)ccnc21` [Compound 120], the IC50 in test [1] fell in the range of 100 to 1000 nM.
Turning to `CCN1c2ncc(CCOc3cccc4c3CS(=O)(=O)N4CC3CC3)cc2C(=O)Nc2c(C)ccnc21` [Compound 121], the IC50 is 100 to 1000 nM in test [2] and below 100 nM in test [1].
As to `CCOC(=O)N1c2cccc(OCCc3cnc4c(c3)C(=O)N(C)c3cccnc3N4CC)c2CS1(=O)=O` [Compound 122], the IC50 in test [2] and in test [1] was below 100 nM in each case.
As to `CCN1c2ncc(CCOc3cccc4c3CS(=O)(=O)N4CC(=O)NO)cc2C(=O)N(C)c2cccnc21` [Compound 133], the IC50 in test [2] and in test [1] was below 100 nM throughout.
`CCN1c2ncc(CCOc3cccc4c3CS(=O)(=O)N4CC(=O)N(C)O)cc2C(=O)N(C)c2cccnc21` [Compound 134]: the IC50 in test [2] and in test [1] was below 100 nM each time.
Turning to `CCOC(=O)CCCN1c2cccc(OCCc3cnc4c(c3)C(=O)N(C)c3cccnc3N4CC)c2CS1(=O)=O` [Compound 135], the 50% inhibitory concentration (IC50) in test [2] and in test [1] was below 100 nM throughout.
For the compound `CCN1c2ncc(CCOc3cccc4c3CS(=O)(=O)N4CC(=O)NC3CC3)cc2C(=O)N(C)c2cccnc21` [Compound 139], the IC50 in test [2] is 100 to 1000 nM; in test [1], below 100 nM.
For `CCNC(=O)CN1c2cccc(OCCc3cnc4c(c3)C(=O)N(C)c3cccnc3N4CC)c2CS1(=O)=O` [Compound 140], in that order: below 100 nM and below 100 nM.
`CCN1c2ncc(CCOc3cccc4c3CS(=O)(=O)N4CCOc3ccncc3)cc2C(=O)N(C)c2cccnc21` [Compound 142]: the half-inhibitory concentration (IC50) in test [2] and in test [1] was below 100 nM in each case.
Take `CCN1c2ncc(CCOc3cccc4c3CS(=O)(=O)N4CCOc3cc[n+]([O-])cc3)cc2C(=O)N(C)c2cccnc21` [Compound 143]: the IC50 in test [2] and in test [1] was below 100 nM in each case.
For `Cc1ccnc2c1NC(=O)c1cc(CCOc3cccc4c3CS(=O)(=O)N4Cc3cc[n+]([O-])cc3)cnc1N2C1CC1` [Compound 144], the IC50 in test [2] was 100 to 1000 nM; in test [1], below 100 nM.
Consider `CCN1c2ncc(CCOc3cccc4c3CS(=O)(=O)N4Cc3cc[n+]([O-])cc3)cc2C(=O)Nc2c(C)cc(F)nc21` [Compound 145], for which the half-inhibitory concentration (IC50) in test [2] and in test [1] was below 100 nM each time.
Consider `CCN1c2ncc(CCOc3cccc4c3CS(=O)(=O)N4Cc3cc[n+]([O-])cc3)cc2C(=O)Nc2c(C)cc(Cl)nc21` [Compound 146], for which the IC50 in test [2] and in test [1] was below 100 nM each time.
With `CCN1c2ncc(COc3cccc4c3CS(=O)(=O)N4Cc3cc[n+]([O-])cc3)cc2C(=O)N(C)c2ccc(F)nc21` [Compound 148], in test [1], the half-maximal inhibitory concentration (IC50) is below 100 nM.
As for `CCN1c2ncc(CCOc3cccc4c3C(C)(C)NS4(=O)=O)cc2C(=O)N(C)c2cccnc21` [Compound 224], the values for the IC50 in test [2] and in test [1] were 100 to 1000 nM and below 100 nM, respectively.
As for `Cc1ccnc2c1NC(=O)c1cc(CCOc3cccc4c3C(C)(C)NS4(=O)=O)cnc1N2C1CC1` [Compound 226], the IC50 is above 1000 nM in test [2] and below 100 nM in test [1].
On to `CCN1c2ncc(CCOc3ccc4c(c3)CNS4(=O)=O)cc2C(=O)N(C)c2cccnc21` [Compound 301], for which the IC50 in test [2] was 100 to 1000 nM; in test [1], below 100 nM.
The corresponding values for `CCN1c2ncc(CCOc3ccc4c(c3)CN(C)S4(=O)=O)cc2C(=O)N(C)c2cccnc21` [Compound 303] are 100 to 1000 nM and below 100 nM.
Consider `CCN1c2ncc(CCOc3ccc4c(c3)C(C)(C)NS4(=O)=O)cc2C(=O)N(C)c2cccnc21` [Compound 306], for which the IC50 in test [2] and in test [1] was below 100 nM in each case.
For the compound `CCN1c2ncc(CCOc3ccc4c(c3)C(C)(C)N(C)S4(=O)=O)cc2C(=O)N(C)c2cccnc21` [Compound 307], the half-inhibitory concentration (IC50) is 100 to 1000 nM in test [2] and below 100 nM in test [1].
As for `CCN1c2ncc(CCOc3ccc4c(c3)CNS4(=O)=O)cc2C(=O)Nc2c(C)cc(F)nc21` [Compound 310], the IC50 in test [2] is 100 to 1000 nM; in test [1] it was below 100 nM.
The corresponding values for `CCN1c2ncc(CCOc3ccc4c(c3)CS(=O)(=O)N4)cc2C(=O)N(C)c2cccnc21` [Compound 402] are above 1000 nM and below 100 nM.
In the case of `CCN1c2ncc(COc3ccc4c(c3)CS(=O)(=O)N4)cc2C(=O)N(C)c2ccc(F)nc21` [Compound 404], the half-inhibitory concentration (IC50) is above 1000 nM in test [2] and below 100 nM in test [1].
The corresponding values for `CCN1c2ncc(CCOc3ccc4c(c3)C(C)(C)S(=O)(=O)N4)cc2C(=O)Nc2c(C)cc(F)nc21` [Compound 409] are 100 to 1000 nM and below 100 nM.
Turning to `CCN1c2ncc(CCOc3cccc4c3C=CS(=O)(=O)N4)cc2C(=O)N(C)c2cccnc21` [Compound 808], in test [1], the half-inhibitory concentration (IC50) lay in the range of 100 to 1000 nM.
